We go through twelve compounds from patent US20250101038A1, “COMPOUNDS” (priority 2021, published 2025).

Series [1] deals with T1, 5-HT2C receptor (Homo sapiens, UniProt P28335).
T1 construct: host or cells: HEK293
T1 sequence (P28335 33-458): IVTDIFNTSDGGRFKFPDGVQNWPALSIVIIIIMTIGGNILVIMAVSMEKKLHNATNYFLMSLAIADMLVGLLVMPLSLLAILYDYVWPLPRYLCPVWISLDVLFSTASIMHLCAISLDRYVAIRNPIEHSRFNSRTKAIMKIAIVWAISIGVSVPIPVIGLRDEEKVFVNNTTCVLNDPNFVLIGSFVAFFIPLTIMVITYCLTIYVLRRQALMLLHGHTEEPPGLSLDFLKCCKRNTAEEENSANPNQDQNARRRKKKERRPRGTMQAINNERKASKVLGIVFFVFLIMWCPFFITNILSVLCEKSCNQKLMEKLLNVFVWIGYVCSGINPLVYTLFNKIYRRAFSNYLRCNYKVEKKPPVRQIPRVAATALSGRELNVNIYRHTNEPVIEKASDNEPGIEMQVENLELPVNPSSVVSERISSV
In words: cell-based. The following applies: agonist activity, Ca2+ flux, HEK293 cells; for EC50: read-out: 5-HT2C EC50. A general note: Calcium assays in cells follow changes in intracellular calcium, usually with a dye or a luminescent sensor.

Series [2] deals with T2, 5-HT2A receptor (Homo sapiens, UniProt P28223).
T2 construct: host or cells: HEK293
T2 sequence (P28223 whole entry): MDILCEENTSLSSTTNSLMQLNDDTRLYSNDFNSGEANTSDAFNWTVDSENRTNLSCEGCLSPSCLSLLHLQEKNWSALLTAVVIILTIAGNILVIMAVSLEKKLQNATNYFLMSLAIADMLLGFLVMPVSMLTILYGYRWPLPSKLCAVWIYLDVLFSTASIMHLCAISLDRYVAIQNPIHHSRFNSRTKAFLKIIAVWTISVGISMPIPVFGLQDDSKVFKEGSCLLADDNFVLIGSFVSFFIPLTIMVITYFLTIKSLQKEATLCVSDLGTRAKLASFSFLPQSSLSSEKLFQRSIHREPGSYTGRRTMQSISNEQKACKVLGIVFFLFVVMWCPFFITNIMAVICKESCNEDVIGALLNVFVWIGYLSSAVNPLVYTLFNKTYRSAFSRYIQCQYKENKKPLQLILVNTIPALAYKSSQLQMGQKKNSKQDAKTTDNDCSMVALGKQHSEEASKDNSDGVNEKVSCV
Kind of series: FLIPR Ca2+ flux functional assay, 5-HT2A. The class given is cell-based. The following applies: agonist activity, Ca2+ flux, HEK293 cells; for EC50: read-out: 5-HT2A EC50.

Series [3] in a line: In vivo pharmacokinetics, plasma and brain exposure after IP dosing. Also noted: species or system male C57BL/6 mice.
Method: The systemic exposure of selected examples was studied in non-fasted male C57BL/6 mice weighing between 18.9-25.5 g. Mice had access to food and water ad libitum throughout the pre- and post-dose sampling period.
On the day of dosing, the formulation of each compound was prepared by dissolving solid compound in phosphate buffer saline (50 mM) using vortexing, creating colourless solutions (pH 6.4-6.5) for each compound.
Compounds were dosed to mice by IP injection (10 mL/kg dose volume via a 27G needle; n=9 mice per compound) and blood samples were collected at 5 and 30 min; 1, 2 and 4 h post-dose (n=3 mice per time point for each compound). A maximum of three blood samples were obtained from each mouse, with plasma samples being taken via submandibular bleed (approximately 120 μL). Once collected, blood samples were centrifuged immediately, supernatant plasma was removed, and stored at −80° C. until analysis by LCMS. In addition, at the 5 and 30 min and 4 h post-dose time points, the whole brain was rapidly removed from the carcass soon after the blood collection. The whole brains were blotted to remove excess blood, placed into pre-weighed polypropylene vials, and weighed. The brains were snap frozen in dry ice and subsequently stored frozen (−80° C.) until analysis.
Concentrations of test compound in plasma and tissue samples were determined using an LCMS/MS method validated for linearity, accuracy, precision, matrix factor and recovery (Table 2). Test compound standard solutions were diluted from a concentrated stock solution (32 mM in H2O) using 50% can in H2O (v/v) and a calibration curve was prepared in a matched matrix to the test samples.
Plasma: The plasma calibration curve was prepared by spiking aliquots of blank mouse plasma (25 μL) with test compound standard solutions (5 μL) and internal standard solution (5 μL of diazepam, 5 μg/mL in 50% acetonitrile in water). Test plasma samples (25 μL) were thawed, mixed, and then spiked with internal standard solution (5 μL). Plasma protein precipitation was performed by addition of acetonitrile (3-fold volume ratio) and thorough vortex mixing. Samples were centrifuged (RCF=9391×g) for 3 minutes and the supernatant (90 μL) was collected for analysis.
Tissue: Pre-weighed tissue samples (brain) were homogenised using a glass rod in buffer containing an EDTA/potassium fluoride solution (0.1 M/4 mg/mL) as a stabilisation cocktail to minimise the potential for ex vivo degradation (3 mL cocktail/g tissue). The tissue homogenate was briefly centrifuged (RCF=79×g) for 10 seconds to separate the foam layer before transferring an aliquot of the tissue homogenate (200 μL) to a fresh Eppendorf tube for sample extraction. Calibration standards were prepared by spiking blank brain homogenate (200 μL) with the solution standards (10 μL) and the internal standard (10 μL). Study samples were similarly prepared, except that acetonitrile (10 μL) was added instead of solution standards to maintain the same volume. Protein precipitation was carried out by the addition of a 3-fold volume of acetonitrile, followed by vortex mixing and centrifugation (RCF=9391×g) for 3 min to recover the supernatant for analysis.
Replicate analysis: Triplicate analytical replicate (ARs) samples were prepared similarly to the standards for each sample type at three concentrations (50, 500 and 2,000 ng/ml) and repeat injections of these ARs were included throughout the analytical run to assess assay performance. The extraction of the test compound from the standards and ARs were conducted as described above.
Series [4] addresses T3, 5-HT2B receptor (Homo sapiens, UniProt P41595).
T3 construct: host or cells: CHO-K1
Kind of series: cell-based. As to conditions: agonist activity, Ca2+ flux, CHO-K1 cells; for EC50: read-out: 5-HT2B EC50.

Where [5] appears, read: 0.083 h, IP 10 mg/kg, individual mouse, 10 mg/kg.
Where [6] appears, read: 0.5 h, IP 10 mg/kg, individual mouse, 10 mg/kg.
The mark [7] stands for this setting: 4 h, IP 10 mg/kg, individual mouse, 10 mg/kg.
The mark [8] stands for this setting: mouse, plasma, male C57BL/6 mice, IP 10 mg/kg.

SMILES strings stand for the structures. “And” between values parts separate entries of the source, which are not always exact repeats. Identical values can stand only once. Like-named read-outs stand apart in the source and are kept apart here.

For orientation: Emax means the size of the effect at its maximum, as opposed to the concentration needed. One may read the EC50 as the concentration at which the effect is half-maximal. Usually Cmax stands for the highest concentration seen after dosing. As a reminder, the Tmax is the time from dosing to the highest level.

T3 sequence (P41595 whole entry): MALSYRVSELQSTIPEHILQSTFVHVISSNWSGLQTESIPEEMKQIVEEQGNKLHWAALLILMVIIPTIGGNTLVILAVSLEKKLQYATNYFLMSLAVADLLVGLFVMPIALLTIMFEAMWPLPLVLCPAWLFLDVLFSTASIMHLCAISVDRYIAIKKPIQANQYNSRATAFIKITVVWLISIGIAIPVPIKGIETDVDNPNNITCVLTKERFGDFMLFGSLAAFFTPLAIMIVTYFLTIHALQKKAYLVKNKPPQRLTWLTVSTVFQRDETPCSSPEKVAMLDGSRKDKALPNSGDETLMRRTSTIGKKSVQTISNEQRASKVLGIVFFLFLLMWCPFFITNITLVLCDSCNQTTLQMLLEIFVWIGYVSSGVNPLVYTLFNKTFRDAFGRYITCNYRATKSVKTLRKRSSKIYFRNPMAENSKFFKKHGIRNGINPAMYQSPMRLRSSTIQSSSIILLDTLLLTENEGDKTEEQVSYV

With `CCN(C)CCc1c[nH]c2cc(C)c(OC)cc12` [Example P-42, N-ethyl-2-(5-methoxy-6-methyl-1H-indol-3-yl)-N-methylethan-1-amine], the Emax was 85.8% in series [1], 88.2% in series [2] and 8.39% in series [4]. The figures for the EC50 in series [1], in series [2] and in series [4] were 68.5 nM, 26.5 nM and over 10000 nM, respectively. The “B:P Ratio, Individual” value is 3.8 and 7.1 and 2.0 in series [3] (setting [5]); 20 and 11 in series [3] (setting [6]); 18 and 14 and 8.2 in series [3] (setting [7]). Moreover, the “Plasma Concentration, Individual” value in series [3] (setting [5]) is 1760 nM and 3440 nM; in series [3] (setting [6]) it was 1880 nM and 1820 nM; in series [3] (setting [7]) it was 38.4 nM and 20.9 nM. The concentration at 0.5 h was 12600 nM and 7010 nM in series [3] (0.083 h, IP 10 mg/kg, individual mouse, 10 mg/kg, read-out: Brain Parenchyma Concentration, Individual); 37300 nM and 19900 nM in series [3] (0.5 h, IP 10 mg/kg, individual mouse, 10 mg/kg, read-out: Brain Parenchyma Concentration, Individual); 408 nM and 530 nM and 171 nM in series [3] (4 h, IP 10 mg/kg, individual mouse, 10 mg/kg, read-out: Brain Parenchyma Concentration, Individual); 21300 nM in series [3] (male, C57BL/6, mouse, brain, ip, 10 mg/kg, 0.5 h, individual mouse, read-out: Brain Parenchyma Concentration, Individual); 26200 ± 9680 nM in series [3] (male, C57BL/6, mouse, brain, ip, 10 mg/kg, 0.5 h, n = 3, read-out: Brain Parenchyma Concentration, Mean ± SD); 1200 nM in series [3] (male, C57BL/6, mouse, plasma, ip, 10 mg/kg, 0.5 h, individual mouse, read-out: Plasma Concentration, Individual). Further, the concentration at 0.5 h in series [3] (male, C57BL/6, mouse, plasma, ip, 10 mg/kg, 0.5 h, n = 3, read-out: Plasma Concentration, Mean ± SD) stood at 1640 ± 376 nM. The concentration at 0.083 h in series [3] (male, C57BL/6, mouse, brain, ip, 10 mg/kg, 0.083 h, individual mouse, read-out: Brain Parenchyma Concentration, Individual) is 10100 nM; in series [3] (male, C57BL/6, mouse, brain, ip, 10 mg/kg, 0.083 h, n = 3, read-out: Brain Parenchyma Concentration, Mean ± SD), 9900 ± 2790 nM; in series [3] (male, C57BL/6, mouse, plasma, ip, 10 mg/kg, 0.083 h, individual mouse, read-out: Plasma Concentration, Individual), 2650 nM; in series [3] (male, C57BL/6, mouse, plasma, ip, 10 mg/kg, 0.083 h, n = 3, read-out: Plasma Concentration, Mean ± SD) it was 2620 ± 840 nM. In addition, the concentration at 4 h came to 370 ± 182 nM in series [3] (male, C57BL/6, mouse, brain, ip, 10 mg/kg, 4 h, n = 3, read-out: Brain Parenchyma Concentration, Mean ± SD); 22.5 nM in series [3] (male, C57BL/6, mouse, plasma, ip, 10 mg/kg, 4 h, individual mouse, read-out: Plasma Concentration, Individual); 27.3 ± 9.7 nM in series [3] (male, C57BL/6, mouse, plasma, ip, 10 mg/kg, 4 h, n = 3, read-out: Plasma Concentration, Mean ± SD). For the same compound, the Kp at 0.083 h in series [3] (male, C57BL/6, mouse, brain/plasma, ip, 10 mg/kg, 0.083 h, n = 3, read-out: B:P Ratio, Mean ± SD) came out at 4.3 ± 2.6. The Kp at 0.5 h in series [3] (male, C57BL/6, mouse, brain/plasma, ip, 10 mg/kg, 0.5 h, individual mouse, read-out: B:P Ratio, Individual) worked out at 18; in series [3] (male, C57BL/6, mouse, brain/plasma, ip, 10 mg/kg, 0.5 h, n = 3, read-out: B:P Ratio, Mean ± SD), 16 ± 4.6. Moreover, the Kp at 4 h in series [3] (male, C57BL/6, mouse, brain/plasma, ip, 10 mg/kg, 4 h, n = 3, read-out: B:P Ratio, Mean ± SD) stood at 13 ± 5. In series [3] (setting [8]), the peak concentration (Cmax) was found to be 2620 nM. For the same compound, the Tmax in series [3] (setting [8]) was 4.98 min. In series [3] (mouse, plasma, male C57BL/6 mice, IP 10 mg/kg, read-out: Plasma AUC0-inf), the AUC(0-inf) was found to be 2.36 µM·h. Moreover, in series [3] (mouse, male C57BL/6 mice, IP 10 mg/kg, plasma, read-out: Apparent T1/2 (converted)), the half-life was 36 min.

As to `CCN(CC)CCc1c[nH]c2ccc(F)c(F)c12` [Example P-145, 2-(4,5-difluoro-1H-indol-3-yl)-N,N-diethylethan-1-amine], the Emax came out at 72.3% in series [1], 98.5% in series [2] and 51.5% in series [4]. Also, the EC50 in series [1] worked out at 102 nM; in series [2], 10.6 nM; in series [4], 23.3 nM.

Turning to `CC(C)N(CCc1c[nH]c2ccc(F)c(F)c12)C(C)C` [Example P-146, N-(2-(4,5-difluoro-1H-indol-3-yl)ethyl)-N-isopropylpropan-2-amine], the Emax in series [1] stood at 93.1%; in series [2], 98.4%; in series [4], 155%. In addition, the EC50 is 25.4 nM in series [1], 10.1 nM in series [2] and 21.4 nM in series [4].

For `CN(C)CCc1c[nH]c2cc(F)cc(F)c12` [Example P-147, 2-(4,6-difluoro-1H-indol-3-yl)-N,N-dimethylethan-1-amine], the Emax was found to be 15.3% in series [1], 91.6% in series [2] and 15.3% in series [4]. Further, the EC50 in series [2] was 29.2 nM; in series [4], at least 10000 nM.

With `CCN(C)CCc1c[nH]c2cc(F)cc(F)c12` [Example P-148, 2-(4,6-difluoro-1H-indol-3-yl)-N-ethyl-N-methylethan-1-amine], the values for the Emax in series [1], in series [2] and in series [4] were 35.6%, 78.9% and 35.6%, respectively. Also, the EC50 in series [2] was 51.4 nM; in series [4] it was at least 10000 nM.

As for `CC(C)N(C)CCc1c[nH]c2cc(F)cc(F)c12` [Example P-149, N-(2-(4,6-difluoro-1H-indol-3-yl)ethyl)-N-methylpropan-2-amine], the values for the Emax in series [1], in series [2] and in series [4] were 30.1%, 66.8% and 30.1%, respectively. In addition, the figures for the EC50 in series [2] and in series [4] were 52.4 nM and at least 10000 nM, respectively.

`CN(C)CCc1c[nH]c2cc(F)c(F)cc12` [Example P-153, 2-(5,6-difluoro-1H-indol-3-yl)-N,N-dimethylethan-1-amine]: the Emax was 93.6% in series [1], 74.8% in series [2] and 10.6% in series [4]. In addition, the EC50 in series [1] was 5.35 nM; in series [2], 29.5 nM; in series [4] it was over 10000 nM.

Regarding `CCN(C)CCc1c[nH]c2cc(F)c(F)cc12` [Example P-154, 2-(5,6-difluoro-1H-indol-3-yl)-N-ethyl-N-methylethan-1-amine], the values for the Emax in series [1], in series [2] and in series [4] were 102%, 92.4% and 17.6%, respectively. Further, the EC50 in series [1] was 24.9 nM; in series [2], 14.8 nM; in series [4], at least 10000 nM.

`CC(C)N(C)CCc1c[nH]c2cc(F)c(F)cc12` [Example P-155, N-(2-(5,6-difluoro-1H-indol-3-yl)ethyl)-N-methylpropan-2-amine]: the Emax was found to be 83.7% in series [1], 73.4% in series [2] and 45.4% in series [4]. In addition, the values for the EC50 in series [1], in series [2] and in series [4] were 50.7 nM, 10.4 nM and at least 10000 nM, respectively.

As to `CN(C)CCc1c[nH]c2c(F)cc(F)cc12` [Example P-156, 2-(5,7-difluoro-1H-indol-3-yl)-N,N-dimethylethan-1-amine], the Emax in series [1] was 85.2%; in series [2], 48%; in series [4] it was -4.13%. Also, the results for the EC50 in series [1], in series [2] and in series [4] were 11.3 nM, 41.1 nM and over 10000 nM, respectively.

Turning to `CN(C)CCc1c[nH]c2c(F)c(F)ccc12` [Example P-159, 2-(6,7-difluoro-1H-indol-3-yl)-N,N-dimethylethan-1-amine], the Emax in series [1] was found to be 99.3%; in series [2] it was 62%; in series [4], 3.79%. Besides, the results for the 50% effective concentration (EC50) in series [1], in series [2] and in series [4] were 36.5 nM, 28.6 nM and over 10000 nM, respectively.

`CC(C)N(C)CCc1c[nH]c2c(F)c(F)ccc12` [Example P-161, N-(2-(6,7-difluoro-1H-indol-3-yl)ethyl)-N-methylpropan-2-amine]: the figures for the Emax in series [1], in series [2] and in series [4] were 80.9%, 48% and 1.6%, respectively. The results for the EC50 in series [1], in series [2] and in series [4] were 418 nM, 54.8 nM and over 10000 nM, respectively.
